# According to patent US8952024B2, “Herbicidal pyrimidone derivatives” (E I du Pont de Nemours and Company, priority 2009, dated 2015):
# Experiments:
# Test in all cases: Test B pre-/postemergence plant response
# Type in all cases: in vivo
# [1] = system: Italian ryegrass (Lolium multiflorum)
# Procedure, shortened: (§1)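 Steps: sow seed in loam–sand soil and spray preemergence, or grow plants in peat-based medium to 1–4 leaves (2–18 cm) and spray postemergence; formulation is non-phytotoxic solvent plus surfactant; hold in greenhouse 13–15 days; score visually vs controls, 0 = no effect, 100 = complete control.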
# [2] = system: Surinam grass (Brachiaria decumbens)
# Procedure, shortened: as §1
# [3] = system: bermudagrass (Cynodon dactylon)
# Procedure, shortened: as §1
# [4] = system: blackgrass (Alopecurus myosuroides)
# Procedure, shortened: as §1
# corn (Zea mays) = system: corn (Zea mays)
# Procedure, shortened: as §1
# [5] = system: johnsongrass (Sorghum halepense)
# Procedure, shortened: as §1
# [6] = system: lambsquarters (Chenopodium album)
# Procedure, shortened: as §1
# [7] = system: large crabgrass (Digitaria sanguinalis)
# Procedure, shortened: as §1
# [8] = system: ragweed (common ragweed, Ambrosia elatior)
# Procedure, shortened: as §1
# [9] = 62 g ai/ha, postemergence, 0 is no effect, 100 is complete control, 13 to 15 days
smiles,measurement,setting,value
"O=C1CCCC(O)=C1C(=O)c1cnc(-c2ccccc2)n(C2CCCCC2)c1=O [Compound 128, 3-cyclohexyl-5-[(2-hydroxy-6-oxo-1-cyclohexen-1-yl)carbonyl]-2-phenyl-4(3H)-pyrimidinone]","Ryegrass, Italian plant response rating (0 to 100 scale)",[1]; [9],0
same,pest or weed control at 31 g/ha,"[1]; Lolium multiflorum, post-emergence, Postemergence, 31 g ai/ha, 0 to 100 scale (0 no effect, 100 complete control), read-out: Plant response rating, Ryegrass, Italian",0%
same,pest or weed control at 125 g/ha,"[1]; Lolium multiflorum, post-emergence, Postemergence, 125 g ai/ha, scale 0 to 100 (0 no effect, 100 complete control), read-out: Plant response rating, Ryegrass, Italian",5%
same,pest or weed control at 250 g/ha,"[1]; Lolium multiflorum, post-emergence, Postemergence, 250 g ai/ha, scale 0 to 100 (0 no effect, 100 complete control), 13 to 15 days, read-out: Plant response rating, Ryegrass, Italian",30%
same,Surinam Grass plant response rating (0 to 100 scale),[2]; [9],80
same,pest or weed control at 31 g/ha,"[2]; Urochloa decumbens, post-emergence, Postemergence, 31 g ai/ha, 0 to 100 scale (0 no effect, 100 complete control), read-out: Plant response rating, Surinam Grass",50%
same,pest or weed control at 125 g/ha,"[2]; Urochloa decumbens, post-emergence, Postemergence, 125 g ai/ha, scale 0 to 100 (0 no effect, 100 complete control), read-out: Plant response rating, Surinam Grass",85%
same,pest or weed control at 250 g/ha,"[2]; Urochloa decumbens, post-emergence, Postemergence, 250 g ai/ha, scale 0 to 100 (0 no effect, 100 complete control), 13 to 15 days, read-out: Plant response rating, Surinam Grass",85%
same,Bermudagrass plant response rating (0 to 100 scale),[3]; [9],85
same,pest or weed control at 31 g/ha,"[3]; Cynodon dactylon, post-emergence, Postemergence, 31 g ai/ha, 0 to 100 scale (0 no effect, 100 complete control), read-out: Plant response rating, Bermudagrass",75%
same,pest or weed control at 125 g/ha,"[3]; Cynodon dactylon, post-emergence, Postemergence, 125 g ai/ha, scale 0 to 100 (0 no effect, 100 complete control), read-out: Plant response rating, Bermudagrass",98%
same,pest or weed control at 250 g/ha,"[3]; Cynodon dactylon, post-emergence, Postemergence, 250 g ai/ha, scale 0 to 100 (0 no effect, 100 complete control), 13 to 15 days, read-out: Plant response rating, Bermudagrass",100%
same,Blackgrass plant response rating (0 to 100 scale),[4]; [9],5
same,pest or weed control at 31 g/ha,"[4]; Alopecurus myosuroides, post-emergence, 360 h, Postemergence, 31 g ai/ha, 0 to 100 scale (0 no effect, 100 complete control), read-out: Plant response rating, Blackgrass",5%
same,pest or weed control at 125 g/ha,"[4]; Alopecurus myosuroides, post-emergence, 360 h, Postemergence, 125 g ai/ha, scale 0 to 100 (0 no effect, 100 complete control), read-out: Plant response rating, Blackgrass",10%
same,pest or weed control at 250 g/ha,"[4]; Alopecurus myosuroides, post-emergence, 360 h, Postemergence, 250 g ai/ha, scale 0 to 100 (0 no effect, 100 complete control), 13 to 15 days, read-out: Plant response rating, Blackgrass",15%
same,Corn plant response rating (0 to 100 scale),corn (Zea mays); [9],50
same,"Corn plant response rating (crop injury, 0 = no effect, 100 = complete kill) at 31 g/ha","corn (Zea mays); Zea mays, post-emergence, Postemergence, 31 g ai/ha, 0 to 100 scale (0 no effect, 100 complete control)",40%
same,"Corn plant response rating (crop injury, 0 = no effect, 100 = complete kill) at 125 g/ha","corn (Zea mays); Zea mays, post-emergence, Postemergence, 125 g ai/ha, scale 0 to 100 (0 no effect, 100 complete control)",60%
same,"Corn plant response rating (crop injury, 0 = no effect, 100 = complete kill) at 250 g/ha","corn (Zea mays); Zea mays, post-emergence, Postemergence, 250 g ai/ha, scale 0 to 100 (0 no effect, 100 complete control), 13 to 15 days",60%
same,Johnsongrass plant response rating (0 to 100 scale),[5]; [9],70
same,pest or weed control at 31 g/ha,"[5]; Sorghum halepense, post-emergence, Postemergence, 31 g ai/ha, 0 to 100 scale (0 no effect, 100 complete control), read-out: Plant response rating, Johnsongrass",70%
same,pest or weed control at 125 g/ha,"[5]; Sorghum halepense, post-emergence, Postemergence, 125 g ai/ha, scale 0 to 100 (0 no effect, 100 complete control), read-out: Plant response rating, Johnsongrass",85%
same,pest or weed control at 250 g/ha,"[5]; Sorghum halepense, post-emergence, Postemergence, 250 g ai/ha, scale 0 to 100 (0 no effect, 100 complete control), 13 to 15 days, read-out: Plant response rating, Johnsongrass",85%
same,Lambsquarters plant response rating (0 to 100 scale),[6]; [9],98
same,pest or weed control at 31 g/ha,"[6]; Chenopodium album, post-emergence, Postemergence, 31 g ai/ha, 0 to 100 scale (0 no effect, 100 complete control), read-out: Plant response rating, Lambsquarters",95%
same,pest or weed control at 125 g/ha,"[6]; Chenopodium album, post-emergence, Postemergence, 125 g ai/ha, scale 0 to 100 (0 no effect, 100 complete control), read-out: Plant response rating, Lambsquarters",100%
same,pest or weed control at 250 g/ha,"[6]; Chenopodium album, post-emergence, Postemergence, 250 g ai/ha, scale 0 to 100 (0 no effect, 100 complete control), 13 to 15 days, read-out: Plant response rating, Lambsquarters",100%
same,"Crabgrass, Large plant response rating (0 to 100 scale)",[7]; [9],85
same,pest or weed control at 31 g/ha,"[7]; Digitaria sanguinalis, post-emergence, Postemergence, 31 g ai/ha, 0 to 100 scale (0 no effect, 100 complete control), read-out: Plant response rating, Crabgrass, Large",85%
same,pest or weed control at 125 g/ha,"[7]; Digitaria sanguinalis, post-emergence, Postemergence, 125 g ai/ha, scale 0 to 100 (0 no effect, 100 complete control), read-out: Plant response rating, Crabgrass, Large",95%
same,pest or weed control at 250 g/ha,"[7]; Digitaria sanguinalis, post-emergence, Postemergence, 250 g ai/ha, scale 0 to 100 (0 no effect, 100 complete control), 13 to 15 days, read-out: Plant response rating, Crabgrass, Large",100%
same,Ragweed plant response rating (0 to 100 scale),[8]; [9],85
same,pest or weed control at 31 g/ha,"[8]; Ambrosia artemisiifolia, post-emergence, 360 h, Postemergence, 31 g ai/ha, 0 to 100 scale (0 no effect, 100 complete control), read-out: Plant response rating, Ragweed",85%
same,pest or weed control at 125 g/ha,"[8]; Ambrosia artemisiifolia, post-emergence, 360 h, Postemergence, 125 g ai/ha, scale 0 to 100 (0 no effect, 100 complete control), read-out: Plant response rating, Ragweed",95%
same,pest or weed control at 250 g/ha,"[8]; Ambrosia artemisiifolia, post-emergence, 360 h, Postemergence, 250 g ai/ha, scale 0 to 100 (0 no effect, 100 complete control), 13 to 15 days, read-out: Plant response rating, Ragweed",98%
